Experimental data taken from ChEMBL document CHEMBL2074085, “P-glycoprotein (P-gp/MDR1)-mediated efflux of sex-steroid hormones and modulation of P-gp expression in vitro” (Pharm Res, 2004).

Molecular target: ATP-dependent translocase ABCB1 (Homo sapiens, UniProt P08183)
Experiment: TP_TRANSPORTER: transepithelial transport in MDR1-expressing MDCK cells
Format: functional, cell-based
Details: dog

ATP-dependent translocase ABCB1, sequence (P08183 whole entry): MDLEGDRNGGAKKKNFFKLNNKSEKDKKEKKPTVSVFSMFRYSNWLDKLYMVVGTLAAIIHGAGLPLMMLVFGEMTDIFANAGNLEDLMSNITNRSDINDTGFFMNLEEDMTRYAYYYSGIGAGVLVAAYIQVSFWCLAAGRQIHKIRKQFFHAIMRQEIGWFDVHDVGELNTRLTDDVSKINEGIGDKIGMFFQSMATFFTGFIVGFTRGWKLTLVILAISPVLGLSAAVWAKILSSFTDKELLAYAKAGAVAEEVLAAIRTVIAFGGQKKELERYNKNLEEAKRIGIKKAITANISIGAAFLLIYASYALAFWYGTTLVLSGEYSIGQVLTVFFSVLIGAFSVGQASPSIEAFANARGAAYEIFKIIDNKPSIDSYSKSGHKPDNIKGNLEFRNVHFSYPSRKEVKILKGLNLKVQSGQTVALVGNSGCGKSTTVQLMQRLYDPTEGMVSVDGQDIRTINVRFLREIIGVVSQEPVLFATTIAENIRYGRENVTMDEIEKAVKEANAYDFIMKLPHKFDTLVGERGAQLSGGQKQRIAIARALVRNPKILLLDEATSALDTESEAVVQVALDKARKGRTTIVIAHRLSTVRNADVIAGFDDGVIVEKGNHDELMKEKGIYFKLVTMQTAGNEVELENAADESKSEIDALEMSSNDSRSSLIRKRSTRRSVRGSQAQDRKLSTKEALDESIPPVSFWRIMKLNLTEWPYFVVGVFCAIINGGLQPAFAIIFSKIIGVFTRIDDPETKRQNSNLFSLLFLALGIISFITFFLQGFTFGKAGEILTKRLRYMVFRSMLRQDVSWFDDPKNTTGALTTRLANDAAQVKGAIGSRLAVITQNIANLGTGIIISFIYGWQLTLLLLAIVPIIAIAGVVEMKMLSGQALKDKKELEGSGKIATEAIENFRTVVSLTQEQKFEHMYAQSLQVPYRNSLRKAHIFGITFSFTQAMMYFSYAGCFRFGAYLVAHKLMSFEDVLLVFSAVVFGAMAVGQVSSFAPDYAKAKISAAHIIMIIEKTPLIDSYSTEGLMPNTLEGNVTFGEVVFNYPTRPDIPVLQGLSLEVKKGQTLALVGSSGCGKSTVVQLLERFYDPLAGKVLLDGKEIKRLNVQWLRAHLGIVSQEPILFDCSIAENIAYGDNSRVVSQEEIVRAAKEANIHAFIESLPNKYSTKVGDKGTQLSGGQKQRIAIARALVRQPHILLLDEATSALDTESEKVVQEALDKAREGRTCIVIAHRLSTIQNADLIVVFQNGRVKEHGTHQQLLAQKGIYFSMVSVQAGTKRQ

Compound | Activity
C[C@]12CC[C@@H]3c4ccc(O)cc4CC[C@H]3[C@@H]1CC[C@@H]2O [ESTRADIOL] | is not a substrate [-]
C[C@]12CC[C@@H]3c4ccc(O)cc4CC[C@H]3[C@@H]1C[C@@H](O)[C@@H]2O [ESTRIOL] | substrate [+]
C[C@]12CC[C@@H]3c4ccc(O)cc4CC[C@H]3[C@@H]1CCC2=O [ESTRONE] | substrate [+]
CC(=O)[C@H]1CC[C@H]2[C@@H]3CCC4=CC(=O)CC[C@]4(C)[C@H]3CC[C@]12C [PROGESTERONE] | is not a substrate [-]

Other lines, results leading:

Activity | Compound
substrate [+] | C#C[C@]1(O)CC[C@H]2[C@@H]3CCc4cc(O)ccc4[C@H]3CC[C@@]21C [ETHINYL ESTRADIOL]
is not a substrate [-] | C#C[C@]1(O)CC[C@H]2[C@@H]3CCC4=CC(=O)CC[C@@H]4[C@H]3CC[C@@]21C [NORETHINDRONE]
